“Also recorded” adds a separate entry of the source.
Columns and labels:
[1] = target: T1, latent human 20S proteasome (Homo sapiens, UniProt P25787+P60900); test: Chymotrypsin-like (ChT-L) activity of purified latent human 20S proteasome, Suc-LLVY-AMC substrate; assay type: biochemical; conditions: for activation of ChT-L activity of 20S proteasome (in words): in vitro, latent human 20S
T1 construct: purified from erythrocytes; purchased Boston Biochem, Inc. or Enzo Life Sciences, Inc; host or cells: human erythrocytes
Protocol: Determination of Proteasome Activity. Human housekeeping core (20S) proteasome purified from erythrocytes was purchased from Boston Biochem, Inc. (Cambridge, Mass.) or from Enzo Life Sciences, Inc. (Farmingdale, N.Y.). […] The stock proteasome was diluted to 0.2 mg/mL working solution in “dilution buffer” (50 mM Tris/HCl, pH 8, 20% glycerol). The following model peptide substrates, releasing fluorescent 7-amino-4-methylcoumarin (AMC) reporter group after cleavage, were used: succinyl-LeuLeuValTyr-AMC (SEQ ID NO: 14) (for the ChT-L peptidase; SucLLVY-AMC; Bachem Bioscience Inc., Philadelphia, Pa.), butoxycarbonyl-LeuArgArg-AMC (T-L; Bachem Bioscience Inc., Philadelphia, Pa.) and carbobenzoxy-LeuLeuGlu-AMC (PGPH; Enzo Life Sciences Inc., Farmingdale, N.Y.). The substrates were used at concentration of 50 μM (ChT-L) or 100 μM (T-L, PGPH). Free AMC (Sigma-Aldrich, St. Louis, Mo.) was used as the standard. […] The TAT peptides, Rpt peptides (except Rpt6) and the peptide substrates were dissolved in anhydrous dimethylsulfoxide (DMSO; Sigma-Aldrich, St. Louis, Mo.) and such stock solutions were stored at −20° C. The total concentration of DMSO in final reaction mixtures never exceeded 3% (vol/vol). The Trp (tryptophan)-containing Rpt6 peptide was dissolved in ultrapure water and stored at −20° C., protected from light. The reaction was carried out in 96-well plates, in 100 μL of reaction mixture that consisted of 45 mM Tris/HCl, pH 8, 100 mM KCl, 1 mM EDTA (reaction buffer) and a fluorogenic peptide substrate, to which 200 ng (nearly […]) of proteasome were added. […] The proteasome was preincubated with a substrate for 10 min at room temperature, then 1 μL of DMSO or a desired concentration of a TAT peptide in 1 μL of DMSO were added. After mixing, the plate was transferred to a Fluoroskan Ascent plate reader (Thermo Fisher Scientific Inc., Waltham, Mass.) for 1 h (37° C.), with fluorescence readouts once per minute. To test the competition with Rpt derived peptides, the Rpt peptide (1 μM) was added before the TAT peptide to the reaction mixture. The reaction rates were calculated from a linear segment of kinetic curves constructed from measurements in 1-min intervals. Reaction rates were calculated using a linear fit performed with the Slope Analyser and Enzyme Kinetics applications launched within Origin Pro 2019 (OriginLab Corporation, Northampton, Mass.). […] The data are presented as mean±SD from at least three independent experiments.
Statistical Analysis. Experiments were performed at least in three independent replicates. The results are presented as a mean±SD. A two-tailed t-test was applied to compare the means. The comparisons were allowing for unequal variances with a Welch correction. Abundance of proteasome conformers was compared with the chi squared test and two-sample proportion test. A significance level was set at 0.05. Statistical analysis was performed using statistical procedures offered by OriginPro 2019 (OriginLabs, Northampton, Mass.). Reaction rates were calculated from a smoothed linear segment of kinetic traces using OriginPro 2019. Response curves (activity vs. compound concentration) were fitted with a nonlinear fitting application of OriginPro 2019. The AC50 and maximum activation fold was calculated based on the equations implemented to fit the response curves.

[2] = target: T2, latent 20S core proteasome, T-L peptidase (Homo sapiens, UniProt P25787+P60900); test: Trypsin-like (T-L) peptidase activity of the core proteasome; assay type: biochemical
T2 construct: purified from erythrocytes; purchased Boston Biochem, Inc. or Enzo Life Sciences, Inc; host or cells: human erythrocytes
Protocol: Determination of Proteasome Activity. Human housekeeping core (20S) proteasome purified from erythrocytes was purchased from Boston Biochem, Inc. (Cambridge, Mass.) or from Enzo Life Sciences, Inc. (Farmingdale, N.Y.). Multiple batches of the proteasomes were used and performed reproducibly. The stock proteasome was diluted to 0.2 mg/mL working solution in “dilution buffer” (50 mM Tris/HCl, pH 8, 20% glycerol). The following model peptide substrates, releasing fluorescent 7-amino-4-methylcoumarin (AMC) reporter group after cleavage, were used: succinyl-LeuLeuValTyr-AMC (SEQ ID NO: 14) (for the ChT-L peptidase; SucLLVY-AMC; Bachem Bioscience Inc., Philadelphia, Pa.), butoxycarbonyl-LeuArgArg-AMC (T-L; Bachem Bioscience Inc., Philadelphia, Pa.) and carbobenzoxy-LeuLeuGlu-AMC (PGPH; Enzo Life Sciences Inc., Farmingdale, N.Y.). […] After mixing, the plate was transferred to a Fluoroskan Ascent plate reader (Thermo Fisher Scientific Inc., Waltham, Mass.) for 1 h (37° C.), with fluorescence readouts once per minute. […] The reaction rates were calculated from a linear segment of kinetic curves constructed from measurements in 1-min intervals. Reaction rates were calculated using a linear fit performed with the Slope Analyser and Enzyme Kinetics applications launched within Origin Pro 2019 (OriginLab Corporation, Northampton, Mass.). […]

Row | Structure (SMILES) | AC50 ([1]; 20S proteasome AC50, Table 1, ChT-L activity, Suc-LLVY-MCA, purified human housekeeping 20S) [nM] | AC50 ([1]; AC50 [nM] ± SE, Table 3, purified 20S proteasome in Tris/HCl buffer pH 8, ChT-L model substrate) [nM] | activation of ChT-L activity of 20S proteasome (in words) [1] | effect on trypsin-like (T-L) activity [2] | activation of ChT-L activity of 20S proteasome (in words) ([1]; listed as Tat1-Den) | activation of ChT-L activity of 20S proteasome (in words) ([1]; listed as Tat-Den)
1 | N=C(N)NCCCC(NC(=O)CN)C(=O)NC(CCCCN)C(=O)NC(CCCCN)C(=O)NC(CCCNC(=N)N)C(=O)NC(CCCNC(=N)N)C(=O)NC(CCC(N)=O)C(=O)N1Cc2ccccc2C[C@H]1C(=O)N1C(C(=O)NC(CCCNC(N)N)C(=O)N2CCCC2C(=O)NC(CO)C(=O)O)CC2CCCCC21 (some centres unmarked) [(5), GRKKRRQ-TOD-RPS] | 221 | 220 ± 89 | strongly enhance | weak inhibitory effects; also recorded: did not seem to significantly affect |  | 
2 | NCCCCC(N)C(=O)NC(CCCCN)C(=O)NC(CCCCN)C(=O)Nc1cc(NC(=O)C(CCCCN)NC(=O)C(CCCCN)NC(=O)C(N)CCCCN)cc(C(=O)NC(CCCCN)C(=O)NC(CCCCN)C(=O)NC(CCCCN)C(=O)O)c1 (centres unmarked) [(8)] |  |  | one of the highest activation folds for the 20S core and one of the lowest AC50; also recorded: highest fold of activation potential and a low AC50 | weak inhibitory effects; also recorded: did not seem to significantly affect | one of the best proteasome activators | strongly enhance
